Data published in US11275078B2, “Method and system for sensing” (Ramot at Tel-Aviv University Ltd., priority 2015, dated 2022).

Tests used:
Format in all cases: cell-based, Human
[1] = test system: Jurkat cells; experiment: Cell proliferation rate / viability of drug-treated Jurkat cells (trypan blue, hemocytometer); conditions: for cell viability: 24-hour viability observation
Method: Human T lymphocytes, Jurkat (TIB-152, ATCC), were cultured and incubated at 37° C. under a humidified 5% CO2 atmosphere. The culture medium used was RPMI 1640 medium (52400, GIBCO) with 10% fetal bovine serum (FBS; 04-001-1A, Biological Industry) and 1% penicillin/streptomycin (15140, GIBCO). During experiments, cells were re-suspended in phenol red-free medium (11835-063, GIBCO) in the presence or absence of a drug, either methotrexate hydrate (MTX; […], SIGMA) or 2-deoxy-D-glucose (2DG; […], SIGMA), at a density of 1×10^6 cells/ml. Cell viability was estimated by using a hemocytometer to count trypan blue-stained cells. Relative cell count, presented in FIGS. 6B and 6E-6F, is a ratio of the cell count at t=24 hours to the initial cell count.

[2] = test system: Jurkat cells; experiment: pH sensing of drug-treated Jurkat cells (reductant-added medium, nanowire FET); conditions: 24-hour monitoring, culture medium
Source text: A conversion of the modified FET into a pH sensor was achieved by using a reductant-added solution. After supplementing a culture medium with 0.1% v/v DEHA to reduce the modified FET surface, surface proton density varied by protonation or by deprotonation dominantly changes the measured current.
For pH sensing, 0.1% v/v DEHA was supplemented in the sensing medium to reduce the 9,10-anthraquinone monolayer on the FET surface to obtain 9,10-dihydroxyanthracene (see also FIG. 1d) and H2O2 simultaneously. Therefore, no significant amount of H2O2 in a DEHA-supplemented medium altered a measured signal. As a result, surface proton density, varied by protonation or by deprotonation, dominantly changes an acquired signal.

[3] = test system: Jurkat cells; experiment: 24-hour monitoring of extracellular ROS levels of drug-treated Jurkat cells using the nanowire biosensor; conditions: t=6 hours, normalized by number of live cells
Method: For measurements of cellular metabolites/activity, cells were cultured in the chip, namely, in the culture compartment thereof (see, for example, FIG. 1A), while placing the chip in an incubator during measurements. A sample was introduced to the sensing compartment at 20 μl min^-1 by using a syringe pump. Human T lymphocytes, Jurkat (TIB-152, ATCC), were cultured and incubated at 37° C. under a humidified 5% CO2 atmosphere. The culture medium used was RPMI 1640 medium (52400, GIBCO) with 10% fetal bovine serum (FBS; 04-001-1A, Biological Industry) and 1% penicillin/streptomycin (15140, GIBCO). During experiments, cells were re-suspended in phenol red-free medium (11835-063, GIBCO) in the presence or absence of a drug, either methotrexate hydrate (MTX; […], SIGMA) or 2-deoxy-D-glucose (2DG; […], SIGMA), at a density of 1×10^6 cells/ml. Cellular samples were dispensed into the wells of the sensing chip (see FIGS. 1A and 1B) in an incubator. 24-hour monitoring of metabolic activity of drug-treated Jurkat cells by measuring extracellular ROS levels using the nanowire biosensor, was performed and the obtained data is presented in FIGS. 6A-G. Measured ROS levels were normalized by the number of live cells.

[4] = test system: Jurkat cells; experiment: Extracellular lactate level of 2DG-treated Jurkat cells (lactate oxidase, nanowire biosensor); conditions: after 24 hours
Method: For lactate sensing, 0.1 unit/ml of lactate oxidase (LOX; L0638, SIGMA) was added in phenol red-free medium to convert lactate to pyruvate and H2O2 before lactate reaches the FET array (as depicted in FIG. 1D).
During experiments, cells were re-suspended in phenol red-free medium (11835-063, GIBCO) in the presence or absence of a drug, either methotrexate hydrate (MTX; M8407, SIGMA) or 2-deoxy-D-glucose (2DG; D6134, SIGMA), at a density of 1×10^6 cells/ml.
The correlation between extracellular lactate level of 2DG-treated Jurkat cells and a resultant cell proliferation rate after 24 hours was investigated.

For `O=CC[C@@H](O)[C@H](O)[C@H](O)CO` [2DG, 2-deoxy-D-glucose], the cell viability [1] was “anti-proliferative activity”, the cell proliferation rate ([1]; after 24 hours, relative cell count = count at t=24 hours / initial count) was “reduced” and the “pH of treated cells versus control” value [2] was “more basic than the control”. For the same molecule, the ROS level [3] was “noticeable decrease” and the cellular lactate secretion [4] was “decreased”.
With `CN(Cc1cnc2nc(N)nc(N)c2n1)c1ccc(C(=O)N[C@@H](CCC(=O)O)C(=O)O)cc1` [MTX, methotrexate hydrate] the cell viability [1] was “anti-proliferative activity” and the ROS level [3] was “noticeable decrease”.
